Results on 19 molecules are retold here after patent publication US20250320213A1, “Nitrogen-Containing Heterocyclic Compounds” (Pfizer Inc., priority 2024, published 2025).

Assay [1] relates to CCL17 secretion in peripheral human whole blood. The assay can be described thus: Human Whole Blood (HWB) CCL17 TR-FRET Assay (IL-13 stimulated CCL17 secretion). It is filed as cell-based. The note with it: human whole blood, IL-13 stimulated. An outline of the steps: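 Heparinized human whole blood was preincubated with compound (11-point, 3-fold series) for 2 h at 37°C, then stimulated with IL-13 (10 ng/mL final) for 48 h. Serum CCL17 was measured by TR-FRET sandwich immunoassay (665/615 nm ratio) after 16 h at room temperature, giving IC50.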

Another assay deals with T1, STAT6 (Homo sapiens, UniProt P42226).
T1 construct: stably transfected HaCaT keratinocyte cell line, which expresses NanoLuc luciferase reporter gene under the transcriptional control of the STAT6 responsive promoter; endogenous in cells; host or cells: HaCaT keratinocyte reporter cell line (stably transfected with a NanoLuc reporter)
T1 sequence (P42226 1-847): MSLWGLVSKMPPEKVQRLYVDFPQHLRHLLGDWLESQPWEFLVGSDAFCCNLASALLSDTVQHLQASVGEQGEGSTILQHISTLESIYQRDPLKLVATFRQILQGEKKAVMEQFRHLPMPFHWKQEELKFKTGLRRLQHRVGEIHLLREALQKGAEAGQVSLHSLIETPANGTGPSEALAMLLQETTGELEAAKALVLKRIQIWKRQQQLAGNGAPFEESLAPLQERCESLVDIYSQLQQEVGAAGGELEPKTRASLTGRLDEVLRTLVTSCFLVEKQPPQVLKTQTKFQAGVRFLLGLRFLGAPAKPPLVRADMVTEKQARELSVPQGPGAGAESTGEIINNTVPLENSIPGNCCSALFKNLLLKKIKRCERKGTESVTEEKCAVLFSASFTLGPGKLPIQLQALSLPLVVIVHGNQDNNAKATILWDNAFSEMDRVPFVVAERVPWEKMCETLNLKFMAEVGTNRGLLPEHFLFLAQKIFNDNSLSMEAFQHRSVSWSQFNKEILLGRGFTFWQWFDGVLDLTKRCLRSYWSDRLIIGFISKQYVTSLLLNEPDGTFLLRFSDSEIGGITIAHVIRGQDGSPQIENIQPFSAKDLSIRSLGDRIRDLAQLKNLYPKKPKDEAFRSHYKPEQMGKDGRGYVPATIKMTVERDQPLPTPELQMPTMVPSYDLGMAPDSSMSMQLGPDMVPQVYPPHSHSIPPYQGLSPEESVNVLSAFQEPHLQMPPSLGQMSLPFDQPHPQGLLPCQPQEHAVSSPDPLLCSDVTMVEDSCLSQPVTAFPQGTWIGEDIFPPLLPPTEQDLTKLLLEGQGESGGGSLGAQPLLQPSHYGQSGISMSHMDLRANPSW
In words: STAT6 Reporter Luciferase Assay (IL-13 stimulated HaCaT keratinocyte NanoLuc reporter cells). The note with it: IL-13 stimulated HaCaT STAT6 NanoLuc reporter cells; read-out: Reporter EC50. It is filed as cell-based. The gist of the method: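 Cells were plated overnight, washed, exposed to compound for two hours, stimulated with IL-13 (0.12 nM final) for four hours at 37 °C, and then lysed with Nano-Glo substrate for 15 min before luminescence reading.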

`CCn1nc(C(=O)NCc2ccc(NC(=O)N(C)C)cc2)c2c1C(C(F)(F)F)CN(c1ccc(C(=O)N(C)C)cn1)C2` (single isomer, unassigned) [Example 304, rel-(R or S)-5-(5-(dimethylcarbamoyl)pyridin-2-yl)-N-(4-(3,3-dimethylureido)benzyl)-1-ethyl-7-(trifluoromethyl)-4,5,6,7-tetrahydro-1H-pyrazolo[4,3-c]pyridine-3-carboxamide] had an IC50 in assay [1] (48 hours) of 4 nM. Also, the EC50 on STAT6 was determined as 0.3 nM.

Molecule `C[C@H]1CN(c2ccc(C(=O)N(C)C)cn2)Cc2c(C(=O)NCc3ccc(NC(=O)N(C)C)cc3)nn(CC(F)(F)F)c21` (single isomer, unassigned) [Example 307] had an IC50 in assay [1] (Homo sapiens, 48 h) of 7 nM. Also, the EC50 at STAT6 came to 0.5 nM.

The molecule `CCC1CN(c2ccc(C(=O)N(C)C)cn2)Cc2c(C(=O)NCc3ccc(NC(=O)N(C)C)cc3)nn(C(C)C)c21` (single isomer, unassigned) [Example 310, rel-(R or S)-5-(5-(dimethylcarbamoyl)pyridin-2-yl)-N-(4-(3,3-dimethylureido)benzyl)-7-ethyl-1-isopropyl-4,5,6,7-tetrahydro-1H-pyrazolo[4,3-c]pyridine-3-carboxamide] displayed an IC50 in assay [1] (48 hours) of 115 nM. Also, the EC50 on STAT6 worked out at 8 nM.

In assay [1] (48 hours), `CCC1CN(c2ccc(C(=O)N(C)C)cn2)Cc2c(C(=O)NCc3ccc(NC(=O)N(C)C)cc3)nn(C(C)C)c21` (single isomer, unassigned) [Example 311, rel-(R or S)-5-(5-(dimethylcarbamoyl)pyridin-2-yl)-N-(4-(3,3-dimethylureido)benzyl)-7-ethyl-1-isopropyl-4,5,6,7-tetrahydro-1H-pyrazolo[4,3-c]pyridine-3-carboxamide] showed an IC50 of 11 nM. Also, the EC50 on STAT6 was 1 nM.

`CCC1CN(c2ccc(C(=O)N(C)C)cn2)Cc2c(C(=O)NCc3ccc(NC(=O)N(C)C)cc3)nn(CC)c21` (single isomer, unassigned) [Example 312, rel-(R or S)-5-(5-(dimethylcarbamoyl)pyridin-2-yl)-N-(4-(3,3-dimethylureido)benzyl)-1,7-diethyl-4,5,6,7-tetrahydro-1H-pyrazolo[4,3-c]pyridine-3-carboxamide] showed an IC50 in assay [1] (48 hours) of 163 nM. Also, the EC50 on STAT6 stood at 10 nM.

For `CCC1CN(c2ccc(C(=O)N(C)C)cn2)Cc2c(C(=O)NCc3ccc(NC(=O)N(C)C)cc3)nn(CC)c21` (single isomer, unassigned) [Example 313, rel-(R or S)-5-(5-(dimethylcarbamoyl)pyridin-2-yl)-N-(4-(3,3-dimethylureido)benzyl)-1,7-diethyl-4,5,6,7-tetrahydro-1H-pyrazolo[4,3-c]pyridine-3-carboxamide], the IC50 in assay [1] (48 hours) was determined as 15 nM. For the same molecule, on STAT6, the EC50 stood at 1 nM.

As to `CCC(C)n1nc(C(=O)NCc2ccc(NC(=O)N(C)C)cc2)c2c1[C@@H](C)CN(c1ccc(C(=O)N(C)C)cn1)C2` (single isomer, unassigned) [Example 318, (S)-1-((R*)-sec-butyl)-5-(5-(dimethylcarbamoyl)pyridin-2-yl)-N-(4-(3,3-dimethylureido)benzyl)-7-methyl-4,5,6,7-tetrahydro-1H-pyrazolo[4,3-c]pyridine-3-carboxamide], half-maximal inhibition in assay [1] (48 hours) (IC50) required 4 nM. Moreover, on STAT6, the EC50 came out at 0.4 nM.

Consider `CCC(C)n1nc(C(=O)NCc2ccc(NC(=O)N(C)C)cc2)c2c1[C@@H](C)CN(c1ccc(C(=O)N(C)C)cn1)C2` (single isomer, unassigned) [Example 319, (S)-1-((R*)-sec-butyl)-5-(5-(dimethylcarbamoyl)pyridin-2-yl)-N-(4-(3,3-dimethylureido)benzyl)-7-methyl-4,5,6,7-tetrahydro-1H-pyrazolo[4,3-c]pyridine-3-carboxamide], for which, in assay [1] (48 hours), inhibition was half-maximal at 13 nM (IC50). Also, the EC50 at STAT6 came to 1 nM.

Regarding `CC(C)n1nc(C(=O)NCc2ccc(-c3ncc[nH]3)cc2)c2c1[C@@H](C)CN(c1ncc(C(=O)N(C)C)cn1)C2` (single isomer, unassigned) [Example 335], the IC50 in assay [1] (Homo sapiens, 48 h) was found to be 5 nM. Further, on STAT6, the EC50 amounted to 1 nM.

In turn, `CCC1CN(c2ccc(C(=O)N(C)C)cn2)Cc2c(C(=O)NCc3ccc(NC(=O)N(C)C)cc3)nc(C)n21` (single isomer, unassigned) [Example 336, rel-(R or S)-7-(5-(dimethylcarbamoyl)pyridin-2-yl)-N-(4-(3,3-dimethylureido)benzyl)-5-ethyl-3-methyl-5,6,7,8-tetrahydroimidazo[1,5-a]pyrazine-1-carboxamide] came in with an IC50 in assay [1] (Homo sapiens, 48 h) of 41 nM. For the same molecule, at STAT6, the EC50 is 14 nM.

In turn, `CC(CC#N)n1nc(C(=O)NCc2ccc(NC(=O)N(C)C)cc2)c2c1CCN(c1ccc(C(=O)N(C)C)cn1)C2` (single isomer, unassigned) [Example 347, rel-(R or S)-1-(1-cyanopropan-2-yl)-5-(5-(dimethylcarbamoyl)pyridin-2-yl)-N-(4-(3,3-dimethylureido)benzyl)-4,5,6,7-tetrahydro-1H-pyrazolo[4,3-c]pyridine-3-carboxamide] came in with an IC50 in assay [1] (48 hours) of 127 nM. Further, at STAT6, the EC50 was 83 nM.

Molecule `CC(CC#N)n1nc(C(=O)NCc2ccc(NC(=O)N(C)C)cc2)c2c1CCN(c1ccc(C(=O)N(C)C)cn1)C2` (single isomer, unassigned) [Example 348, rel-(R or S)-1-(1-cyanopropan-2-yl)-5-(5-(dimethylcarbamoyl)pyridin-2-yl)-N-(4-(3,3-dimethylureido)benzyl)-4,5,6,7-tetrahydro-1H-pyrazolo[4,3-c]pyridine-3-carboxamide] registered an IC50 in assay [1] (48 hours) of 36 nM. In addition, on STAT6, the EC50 turned out to be 43 nM.

In assay [1] (Homo sapiens, 48 h), `CCn1nc(C(=O)NCc2ccc(NC(=O)N(C)C)cc2)c2c1[C@@H](C)[C@H](C)N(c1ccc(C(=O)N(C)C)cn1)C2` (single isomer, unassigned) [Example 352] registered an IC50 of 3 nM. Also, the EC50 at STAT6 is 0.3 nM.

`CCn1nc(C(=O)NCc2ccc(NC(=O)N(C)C)cc2)c2c1[C@H](C)[C@@H](C)N(c1ccc(C(=O)N(C)C)cn1)C2` (single isomer, unassigned) [Example 353] showed an IC50 in assay [1] (Homo sapiens, 48 h) of 47 nM. Moreover, on STAT6, the EC50 was found to be 4 nM.

For the molecule `CC(C)n1nc(C(=O)NCc2ccc(NC(=O)N(C)C)cc2)c2c1[C@H](C)[C@@H](C)N(c1ccc(C(=O)N(C)C)cn1)C2` (single isomer, unassigned) [Example 354], the IC50 in assay [1] (Homo sapiens, 48 h) was 24 nM. Also, on STAT6, the EC50 was 4 nM.

For `CC(C)n1nc(C(=O)NCc2ccc(NC(=O)N(C)C)cc2)c2c1[C@@H](C)[C@H](C)N(c1ccc(C(=O)N(C)C)cn1)C2` (single isomer, unassigned) [Example 355], the IC50 in assay [1] (Homo sapiens, 48 h) was found to be 3 nM. In addition, the EC50 on STAT6 came out at 0.2 nM.

`CNC(=O)c1ccc(CNC(=O)c2nn(C(C)C)c3c2CN(c2ccc(C(=O)N(C)C)cn2)CC3C(F)(F)F)cc1` (single isomer, unassigned) [Example 356, rel-(R or S)-5-(5-(dimethylcarbamoyl)pyridin-2-yl)-1-isopropyl-N-(4-(methylcarbamoyl)benzyl)-7-(trifluoromethyl)-4,5,6,7-tetrahydro-1H-pyrazolo[4,3-c]pyridine-3-carboxamide] displayed an IC50 in assay [1] (48 hours) of 3310 nM. In addition, the EC50 on STAT6 was 246 nM.

`CNC(=O)c1ccc(CNC(=O)c2nn(C(C)C)c3c2CN(c2ccc(C(=O)N(C)C)cn2)CC3C(F)(F)F)cc1` (single isomer, unassigned) [Example 357, rel-(R or S)-5-(5-(dimethylcarbamoyl)pyridin-2-yl)-1-isopropyl-N-(4-(methylcarbamoyl)benzyl)-7-(trifluoromethyl)-4,5,6,7-tetrahydro-1H-pyrazolo[4,3-c]pyridine-3-carboxamide] returned an IC50 in assay [1] (48 hours) of 20 nM. For the same molecule, the EC50 at STAT6 was determined as 1 nM.

`CC(CO)n1nc(C(=O)NCc2ccc(NC(=O)N(C)C)cc2)c2c1CCN(c1ccc(C(=O)N(C)C)cn1)C2` (single isomer, unassigned) [Example 359, rel-(R or S)-5-(5-(dimethylcarbamoyl)pyridin-2-yl)-N-(4-(3,3-dimethylureido)benzyl)-1-(1-hydroxypropan-2-yl)-4,5,6,7-tetrahydro-1H-pyrazolo[4,3-c]pyridine-3-carboxamide] registered an IC50 in assay [1] (48 hours) of 869 nM. Also, on STAT6, the EC50 came out at 358 nM.
